Assay results reported in patent US20250325491A1, “POLYVALENT MOLECULE BASED LIPID NANOPARTICLES FOR NUCLEIC ACID DELIVERY” (Bio-TRIP B.V., priority 2022, published 2025).
Read-outs that look alike come from different tables or passages of the source.

What was measured:
[1] = Dynamic light scattering (DLS) of nanoparticles; format: physicochemical; conditions: siRNA-aNPs containing the polyvalent material (Table S3); SD over individual repeats
Experimental: The hydrodynamic diameter of the formulated particles was determined by a number-weighted mean diameter provided by dynamic light scattering (DLS) using a Zetasizer Nano ZS in combination with a Malvern Zetasizer NanoSampler (Malvern Instruments, Worcestshire, UK). The size dispersity was measured as the poly dispersity index (PDI). For the DLS measurements, 100 μl of the formulated nanoparticle was diluted into 700 μl of PBS (137 mM NaCl, 2.7 mM KCl, 10 mM Na2HPO4 and 1.8 mM KH2PO4) and equilibrated at room temperature before the analysis. Each sample was measured 5 times, 10 runs of each 10 seconds, at wavelength 633 nm, without fixing the attenuator and measurement position.

[2] = Stability of nanoparticle formulations (phase separation on dialysis or storage); format: physicochemical; set-up: key to phase separation of siRNA-aNPs (Table S4): *: Indicates phase separation after two days of storage in the refrigerator at 4° C; key to phase separation of siRNA-aNPs (footnote mark, Table S5): *: Indicates phase separation after two days storage in the fridge at 4° C.; **: Indicates phase separation after overnight dialysis; conditions: siRNA-aNPs containing the polyvalent material; for phase separation of siRNA-aNPs (footnote mark, Table S5): overnight dialysis or storage at 4° C; for phase separation of siRNA-aNPs (Table S4): storage in the refrigerator at 4° C
[3] = Solubility of the polyvalent molecules in ethanol, iso-propanol and tri-caprylin
Experimental: The solubility can be checked by stirring about 20 mg of the polyvalent molecule in 1 gram of tricaprylin, ethanol or iso-propanol, and assessing whether all material spontaneously dissolves to create a clear/transparent solution (with a concentration of about 2 w/w %). The test can be done at about 20 degrees centigrade (room temperature) or at about 37 degrees centigrade.
Spontaneous dissolution upon stirring at room temperature giving a clear solution is a mark for solubility.

RAW 264.7 cell line = test: MTS cytotoxicity assay; format: cell-based; conditions: RAW 264.7 cell line exposed to siRNA-aNPs with increasing amounts of the polyvalent molecule (FIG. 10)
Experimental: MTS assays were carried out on multiple apolipoprotein nanoparticles (aNPs) of the invention. These assays were executed in line with protocols that are known in the art.

[4] = Cryo-TEM of nanoparticles; format: physicochemical
Experimental: Size and shape of the nanoparticles was also assessed by cryo-transmission electron microscopy (cryo-TEM). The surface of 200-mesh lacey carbon supported copper grids (Electron Microscopy Sciences) was plasma charged for 40 seconds using a carbon coater (Cressington 208). Subsequently, 3 μl of nanoparticle sample (˜1 mg protein/ml) was pipetted on a grid and vitrified into a thin film by plunge vitrification in liquid ethane. This step was performed by using an automated robot (FEI Vitrobot Mark IV). Cryo-TEM imaging was acquired on the cryo-transmission electron microscope TITAN (Thermo Fisher), equipped with a field emission gun (FEG), a post-column Gatan imaging filter (model 2002) and a post-GIF 2 k×2 k Gatan CCD camera (model 794). The imaging was performed at 300 kV acceleration voltage in bright-field TEM mode with zero-loss energy filtering at 24,000× magnification (dose rate of 11.8 e−/Å2·s), and 1s acquisition time. Pictures and results are reported in Table S6, FIG. 7, FIG. 8, FIG. 9 (A), FIG. 15.

[5] = 20 mg material per gram of solvent, spontaneous dissolution upon stirring giving a clear solution

SMILES	DLS Hydrodynamic diameter (number mean) [1] [nm]	DLS PDI [1]	solubility in ethanol, iso-propanol and tri-caprylin [3, 5]	other results
CCCCCCCCCCCCCCOC(=O)CCN(C)CCCN(CCCCN(CCCN(C)CCC(=O)OCCCCCCCCCCCCCC)CCCN(C)CCC(=O)OCCCCCCCCCCCCCC)CCCN(C)CCC(=O)OCCCCCCCCCCCCCC [Example H1, G1-ACR-nC14-4/CH3-4]	66 ± 7	0.45 ± 0.43	–	phase separation of siRNA-aNPs (footnote mark, Table S5) [2]: H1 *; phase separation of siRNA-aNPs (Table S4) [2]: H1 *
CCCCCCCCC(O)CN(CCCN(CC(O)CCCCCCCC)CC(O)CCCCCCCC)CCCN(CC(O)CCCCCCCC)CC(O)CCCCCCCC (mixture of isomers) [Example G7, Bis(3-aminopropyl)amine-EPX-C8-5]	54 ± 1	0.2 ± 0.06	soluble in all three solvents at room temperature	–
CC(C)CCCCCCCOC(=O)CCN(CCCN(CCCCN(CCCN(CCC(=O)OCCCCCCCC(C)C)CCC(=O)OCCCCCCCC(C)C)CCCN(CCC(=O)OCCCCCCCC(C)C)CCC(=O)OCCCCCCCC(C)C)CCCN(CCC(=O)OCCCCCCCC(C)C)CCC(=O)OCCCCCCCC(C)C)CCC(=O)OCCCCCCCC(C)C [Example A6, G1-ACR-isoC10-8]	48 ± 1	0.14 ± 0.02	–	cytotoxicity (MTS assay) (RAW 264.7 cell line): do not exercise cytotoxicity; diameter of siRNA-aNPs visible in cryo-TEM and immuno-gold staining TEM images ([4]; siRNA-aNPs containing A6 (FIG. 9)): about 50 nm; Cryo-TEM Diameter ([4]; siRNA-aNPs containing the polyvalent material, SD over n individual particles): 53 ± 11 nm; Cryo-TEM PDI ([4]; siRNA-aNPs containing the polyvalent material, n individual particles): 0.02
CCCCCCCCOC(=O)CCN(CCCN(C)CCCN(CCC(=O)OCCCCCCCC)CCC(=O)OCCCCCCCC)CCC(=O)OCCCCCCCC [Example A11, Bis-(3-aminopropyl)methylamine-ACR-C8-4]	136 ± 45	0.14 ± 0.04	soluble in all three solvents at room temperature	–
CCCCCCCCC(O)CN(CCCN(C)CCCN(CC(O)CCCCCCCC)CC(O)CCCCCCCC)CC(O)CCCCCCCC (mixture of isomers) [Example G9, Bis(3-aminopropyl)methylamine-EPX-C8-4]	73 ± 10	0.18 ± 0.08	–	–
CCCCCCCCC(O)CN(CCN(CC(O)CCCCCCCC)CC(O)CCCCCCCC)CCN(CC(O)CCCCCCCC)CC(O)CCCCCCCC (mixture of isomers) [Example G8, Bis(2-amino-ethyl)amine-EPX-C8-5]	84 ± 45	0.2 ± 0.05	soluble in all three solvents at room temperature	–
CCCCCCCCCCCCCCOC(=O)CCN(CCCN(CCCCN(CCCN(CCC(=O)OCCCCCCCCCCCCCC)CCC(=O)OCCCCCCCCCCCCCC)CCCN(CCC(=O)OCCCCCCCCCCCCCC)CCC(=O)OCCCCCCCCCCCCCC)CCCN(CCC(=O)OCCCCCCCCCCCCCC)CCC(=O)OCCCCCCCCCCCCCC)CCC(=O)OCCCCCCCCCCCCCC [Example A3, G1-ACR-nC14-8]	55 ± 0.7	0.14 ± 0.01	–	–
CCCCCCCCC=CCCCCCCCC(=O)NCCCCC(N)C(=O)NCCCN(CCCCN(CCCNC(=O)C(N)CCCCNC(=O)CCCCCCCC=CCCCCCCCC)CCCNC(=O)C(N)CCCCNC(=O)CCCCCCCC=CCCCCCCCC)CCCNC(=O)C(N)CCCCNC(=O)CCCCCCCC=CCCCCCCCC (centres unmarked) [Example J10, G1-Lysine-N^6-Oleate-4]	–	–	soluble in all three solvents at room temperature	–
CCCCCCCCOC(=O)CCN(CCC(=O)OCCCCCCCC)CCN(CCC(=O)OCCCCCCCC)CCN(CCC(=O)OCCCCCCCC)CCC(=O)OCCCCCCCC [Example A10, Bis(2-aminoethyl)amine-ACR-C8-5]	–	–	–	solubility in ethanol, iso-propanol and tri-caprylin [3]: soluble in all three solvents at room temperature
CCCCCCCCC=CCCCCCCCC(=O)NC(CCCNC(=N)N)C(=O)NCCCN(CCCCN(CCCNC(=O)C(CCCNC(=N)N)NC(=O)CCCCCCCC=CCCCCCCCC)CCCNC(=O)C(CCCNC(=N)N)NC(=O)CCCCCCCC=CCCCCCCCC)CCCNC(=O)C(CCCNC(=N)N)NC(=O)CCCCCCCC=CCCCCCCCC (centres unmarked) [Example J11, G1-Arginine-Oleate-4]	–	–	soluble in all three solvents at room temperature	–
CCCCCCCCOC(=O)CCN(CCCN(CCC(=O)OCCCCCCCC)CCC(=O)OCCCCCCCC)CCCN(CCC(=O)OCCCCCCCC)CCC(=O)OCCCCCCCC [Example A9, Bis(3-Aminopropyl)Amine-ACR-C8-5]	–	–	soluble in all three solvents at room temperature	–
CCCCCCCCCCC(O)CN(CCCN(CCCCN(CCCN(CC(O)CCCCCCCCCC)CC(O)CCCCCCCCCC)CCCN(CC(O)CCCCCCCCCC)CC(O)CCCCCCCCCC)CCCN(CC(O)CCCCCCCCCC)CC(O)CCCCCCCCCC)CC(O)CCCCCCCCCC (mixture of isomers) [Example G2, G1-EPX-nC10-8]	55 ± 4	0.10 ± 0.01	soluble in all three solvents at room temperature	–
CCCCCCCCCCCCCCOC(=O)CCN(CCCN(CCCCN(CCCN(CCC(=O)OCCCCCCCCCCCCCC)C(C)=O)CCCN(CCC(=O)OCCCCCCCCCCCCCC)C(C)=O)CCCN(CCC(=O)OCCCCCCCCCCCCCC)C(C)=O)C(C)=O [Example B2, G1-ACR-nC14-4/Ac-4]	67	0.09	soluble in all three solvents at room temperature	phase separation of siRNA-aNPs (footnote mark, Table S5) [2]: B2 *; phase separation of siRNA-aNPs (Table S4) [2]: B2 *
